Measurements as given in article PMC12059914, “Discovery of Novel Allosteric Inhibitor Hits for Insulin-Regulated Aminopeptidase Provides Insights on Enzymatic Mechanism” (ACS Omega, 2025).

Assays:
Assay type in all cases: biochemical
[1] = molecular target: T1, IRAP (insulin-regulated aminopeptidase) (Homo sapiens, UniProt Q9UIQ6); assay: HPLC vasopressin trimming, dose-response
T1 construct: gene LNPEP; extracellular (luminal) aminopeptidase domain; Rhodopsin 1D4 tag (given as N-terminal); secreted from stably transfected HEK 293S GnTI(-) cells; PDB ids are the docking structures

ERAP2 = molecular target: T2, ERAP2 (Homo sapiens, UniProt Q6P179); assay: fluorogenic Arg-AMC hydrolysis, dose-response
T2 construct: recombinant; Hi5 insect cells, baculovirus; Ni-NTA purified

ERAP1 [2] = molecular target: T3, ERAP1 (Homo sapiens, UniProt Q9NZ08); assay: fluorogenic Leu-AMC hydrolysis, dose-response
T3 construct: recombinant; Hi5 insect cells, baculovirus; Ni-NTA purified

[3] = molecular target: T1, IRAP (insulin-regulated aminopeptidase); assay: fluorogenic Leu-AMC hydrolysis, dose-response
ERAP1 [4] = molecular target: T3, ERAP1; assay: fluorogenic Leu-AMC hydrolysis, dose-response; remark: listed apart in the source
[5] = molecular target: T1, IRAP (insulin-regulated aminopeptidase); assay: Michaelis-Menten, fluorescence; settings: pH 7.0, 1 nM enzyme, no inhibitor

T1 sequence (Q9UIQ6 132-1025 limits assumed): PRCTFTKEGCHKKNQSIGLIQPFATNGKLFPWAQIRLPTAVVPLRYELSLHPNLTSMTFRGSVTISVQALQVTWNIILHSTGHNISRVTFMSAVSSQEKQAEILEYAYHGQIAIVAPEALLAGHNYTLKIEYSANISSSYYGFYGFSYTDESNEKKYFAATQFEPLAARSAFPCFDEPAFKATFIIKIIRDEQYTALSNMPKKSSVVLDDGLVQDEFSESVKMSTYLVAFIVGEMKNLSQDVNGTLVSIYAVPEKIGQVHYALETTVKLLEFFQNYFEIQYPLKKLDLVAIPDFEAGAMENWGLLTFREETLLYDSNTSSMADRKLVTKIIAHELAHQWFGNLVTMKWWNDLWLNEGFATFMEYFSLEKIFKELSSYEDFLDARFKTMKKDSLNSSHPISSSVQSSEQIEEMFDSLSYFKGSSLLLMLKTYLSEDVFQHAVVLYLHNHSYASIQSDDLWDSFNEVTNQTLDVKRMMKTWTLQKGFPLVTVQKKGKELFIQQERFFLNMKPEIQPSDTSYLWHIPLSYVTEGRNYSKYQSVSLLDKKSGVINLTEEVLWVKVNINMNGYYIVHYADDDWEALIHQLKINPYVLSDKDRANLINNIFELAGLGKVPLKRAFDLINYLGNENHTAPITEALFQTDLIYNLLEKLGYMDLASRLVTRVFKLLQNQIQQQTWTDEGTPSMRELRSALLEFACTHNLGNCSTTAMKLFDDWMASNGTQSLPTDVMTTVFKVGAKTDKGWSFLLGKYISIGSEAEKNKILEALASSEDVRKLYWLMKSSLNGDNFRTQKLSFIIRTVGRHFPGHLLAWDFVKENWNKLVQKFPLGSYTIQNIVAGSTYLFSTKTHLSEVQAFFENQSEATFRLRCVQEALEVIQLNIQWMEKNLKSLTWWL
T3 sequence (Q9NZ08 whole entry): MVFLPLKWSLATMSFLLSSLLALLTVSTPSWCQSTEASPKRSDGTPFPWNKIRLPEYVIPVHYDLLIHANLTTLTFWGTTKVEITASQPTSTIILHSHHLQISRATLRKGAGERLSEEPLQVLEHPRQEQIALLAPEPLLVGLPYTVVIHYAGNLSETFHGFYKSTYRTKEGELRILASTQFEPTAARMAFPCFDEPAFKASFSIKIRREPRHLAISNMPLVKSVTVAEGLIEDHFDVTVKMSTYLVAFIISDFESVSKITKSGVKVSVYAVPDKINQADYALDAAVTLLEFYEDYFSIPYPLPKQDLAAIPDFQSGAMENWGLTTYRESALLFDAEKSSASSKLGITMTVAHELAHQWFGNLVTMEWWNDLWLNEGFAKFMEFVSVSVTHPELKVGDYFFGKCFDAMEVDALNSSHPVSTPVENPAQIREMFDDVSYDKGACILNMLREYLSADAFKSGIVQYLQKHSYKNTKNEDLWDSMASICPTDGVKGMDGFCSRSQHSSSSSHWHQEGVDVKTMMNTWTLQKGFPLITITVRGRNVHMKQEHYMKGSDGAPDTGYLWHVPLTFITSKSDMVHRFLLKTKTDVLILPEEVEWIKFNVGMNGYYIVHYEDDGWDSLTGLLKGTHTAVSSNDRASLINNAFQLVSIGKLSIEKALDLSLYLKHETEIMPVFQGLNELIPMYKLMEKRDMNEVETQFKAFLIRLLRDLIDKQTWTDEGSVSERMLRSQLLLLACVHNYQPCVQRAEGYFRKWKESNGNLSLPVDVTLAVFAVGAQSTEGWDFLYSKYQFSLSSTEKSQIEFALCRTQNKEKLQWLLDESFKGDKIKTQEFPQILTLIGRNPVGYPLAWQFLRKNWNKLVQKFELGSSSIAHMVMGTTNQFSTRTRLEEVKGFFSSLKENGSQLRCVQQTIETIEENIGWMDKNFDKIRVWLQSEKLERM
T2 sequence (Q6P179 whole entry): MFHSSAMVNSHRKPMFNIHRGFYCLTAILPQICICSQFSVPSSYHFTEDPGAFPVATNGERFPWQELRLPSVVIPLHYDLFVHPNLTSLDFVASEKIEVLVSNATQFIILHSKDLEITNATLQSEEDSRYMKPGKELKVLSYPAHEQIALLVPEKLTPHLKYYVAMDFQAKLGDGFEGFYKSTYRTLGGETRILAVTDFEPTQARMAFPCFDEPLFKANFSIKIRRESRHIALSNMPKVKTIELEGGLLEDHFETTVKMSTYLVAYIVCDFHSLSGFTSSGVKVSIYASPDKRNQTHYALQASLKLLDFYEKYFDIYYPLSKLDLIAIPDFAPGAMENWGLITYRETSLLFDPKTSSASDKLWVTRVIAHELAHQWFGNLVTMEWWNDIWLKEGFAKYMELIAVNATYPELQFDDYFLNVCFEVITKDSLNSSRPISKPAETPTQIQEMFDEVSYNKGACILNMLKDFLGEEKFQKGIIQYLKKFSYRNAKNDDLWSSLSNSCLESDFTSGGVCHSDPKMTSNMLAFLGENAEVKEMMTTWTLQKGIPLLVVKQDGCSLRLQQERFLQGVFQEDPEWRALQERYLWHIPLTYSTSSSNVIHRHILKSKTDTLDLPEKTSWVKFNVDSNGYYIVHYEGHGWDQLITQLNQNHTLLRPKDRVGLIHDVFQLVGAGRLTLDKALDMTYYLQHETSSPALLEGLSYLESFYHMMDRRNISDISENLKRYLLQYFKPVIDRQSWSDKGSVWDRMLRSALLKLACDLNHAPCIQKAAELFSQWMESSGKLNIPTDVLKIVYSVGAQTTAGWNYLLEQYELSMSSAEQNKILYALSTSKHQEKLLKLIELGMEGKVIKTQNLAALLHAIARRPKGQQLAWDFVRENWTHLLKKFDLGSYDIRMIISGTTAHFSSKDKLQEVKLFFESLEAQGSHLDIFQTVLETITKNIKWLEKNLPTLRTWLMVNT

IC50 [1] [µM]	IC50 (ERAP2) [mM]	IC50 (ERAP1 [2]) [µM]	IC50 [3] [µM]	EC50 (ERAP1 [4]) [µM]	Structure (SMILES)	KM [5]
280	–	–	–	–	O=C(O)C1(CF)CCN(Cc2cc3c(Br)cc(F)cc3[nH]2)C1 (racemic) [compound 2]	–
–	> 10	> 300	30	–	O=C(O)c1cc(CN2CCCCC2CCCc2ccccc2)[nH]n1 (racemic) [compound 8]	–
–	1.3	–	125	~450	NCc1cc(C(=O)NC(Cc2ccccc2Cl)c2ccccc2)n[nH]1 (racemic) [compound 11]	–
–	3.6	> 300	208	–	Cc1ccc(CC(C)(CO)NC(=O)c2cc(-c3c[nH]c4ccccc34)[nH]n2)cc1 (racemic) [compound 17]	–
–	–	–	–	–	Cc1cc(=O)oc2cc(NC(=O)[C@@H](N)CC(C)C)ccc12 [Leu-AMC]	Michaelis–Menten analysis of (A, B) Leu-AMC substrate digestion by IRAP
